Test results as given in patent publication US10647959B2, “Cell-friendly inverse opal hydrogels for cell encapsulation, drug and protein delivery, and functional nanoparticle encapsulation” (President and Fellows of Harvard College, priority 2011, dated 2020).

Tested on: Mouse mesenchymal stem cells (MSCs)
Conditions: 50 mM EDTA solution, up to 3 h incubation, fluorescent images (FIG. 5a)
Experimental: Subsequently, the viability of cells was measured with a live/dead cell assay by using calcein AM and ethidium homodimer-1.

In the case of `O=C(O)CN(CCN(CC(=O)O)CC(=O)O)CC(=O)O` [EDTA, ethylenediaminetetraacetic acid], the “toxicity of the EDTA solution to the cells” value is reported as “no significant toxicity”.
